For one compound, IC50 results are on record in patent US6863647B2, “2-Ureido-thiazole derivatives, process for their preparation, and their use as antitumor agents” (Pharmacia & Upjohn S.p.A., priority 1998, dated 2005).

In this test the target is cdk2/cyclin A complex (Homo sapiens, UniProt P24941). Kind of test: inhibition assay of cdk2/Cyclin A activity (MultiScreen-PH phosphocellulose filter, 33P-labelled histone H1). Format: biochemical. The note with it: histone H1 substrate, 25 μM ATP; inhibitor 0.0045 to 10 μM; read-out: inhibiting activity towards the cdk2/cyclin A complex (IC50). Here is the method: The inhibiting activity of putative cdk/cyclin inhibitors and the potency of selected compounds was determined through a method of assay based on the use of the MultiScreen-PH 96 well plate (Millipore), in which a phosphocellulose filter paper was placed at each well bottom allowing binding of positive charged substrate after a washing/filtration step.
When a radioactivity labelled phosphate moiety was transferred by the ser/threo kinase to the filter-bound histone, light emitted was measured in a scintillation counter.
The inhibition assay of cdk2/Cyclin A activity was performed according to the following protocol: • Kinase reaction: 1.5 μM histone H1 substrate, 25 μM ATP (0.5 μCi P^33γ-ATF), 30 ng Cyclin A/cdk2 complex, 10 μM inhibitor in a final volume of 100 μl buffer (TRIS HCl 10 mM pH 7.5, MgCl2 10 mM, 7.5 mM DTT) were added to each well of a 96 U bottom well plate. […] Plates were then washed 3 times with 150 μl/well PBS Ca^++/Mg^++ free and filtered by MultiScreen filtration system. • Detection: filters were allowed to dry at 37° C., then 100 μl/well scintillant were added and ^33P labelled histone H1 was detected by radioactivity counting in the Top-Count instrument. • Results: data were analysed and expressed as % inhibition referred to total activity of enzyme (=100%). […]

On to `Cc1cc(C)cc(NC(=O)Nc2ncc(C(C)C)s2)c1` [N-(5-isopropyl-1,3-thiazol-2-yl)-N′-(3,5-dimethylphenyl)urea], for which the IC50 is 560 nM.
